# Source: the supplement of paper PMC9763283
# Legend:
# Experiment in all cases: area under growth-rate inhibition curve (AUC GRI) (dimensionless (GR-based AUC)); higher = less growth inhibition
# Details in all cases: exposure time: 72 h; concentrations: 0.1, 1, 10 uM
# BT474-P = system: BT474-P
# Outline: (§1)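 The area under the growth-rate inhibition curve was measured in six breast cancer cell line models, covering triple-negative lines and HER2+ lines, both parental and resistant to a two-drug combination. Cells were exposed to compound at 0.1, 1 or 10 µM for 72 h, fixed in 4% paraformaldehyde, and nuclei were stained with Hoechst 33342 or DAPI for imaging and counting. Day 0 plates, untreated Day 3 plates and DMSO controls served to correct growth across 2 biological replicates.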
# MDA-MB-468 = system: MDA-MB-468
# Outline: as §1
# SKBR3-LTR = system: SKBR3-LTR
# Outline: as §1
# MDA-MB-231 = system: MDA-MB-231
# Outline: as §1
# BT474-LTR = system: BT474-LTR
# Outline: as §1
# SKBR3-P = system: SKBR3-P
# Outline: as §1
SMILES,area under growth-rate inhibition curve (BT474-P),area under growth-rate inhibition curve (MDA-MB-468),area under growth-rate inhibition curve (SKBR3-LTR),area under growth-rate inhibition curve (MDA-MB-231),area under growth-rate inhibition curve (BT474-LTR),area under growth-rate inhibition curve (SKBR3-P)
COc1ccc(C(Cl)=C(c2ccc(OC)cc2)c2ccc(OC)cc2)cc1 [Chlorotrianisene],0.983,1,1.05,1.01,1.08,0.987
CCCN(CCc1cccs1)[C@H]1CCc2c(O)cccc2C1 [Rotigotine],1.05,0.992,1.08,1.03,1.08,0.984
CC(CCc1ccccc1)NCC(O)c1ccc(O)c(C(N)=O)c1.Cl (configuration not stated) [Labetalol HCl],1.1,1.04,1.06,1.06,1.07,1.01
CC(C)C(=O)Oc1ccc(CO)cc1[C@H](CCN(C(C)C)C(C)C)c1ccccc1.O=C(O)/C=C/C(=O)O [Fesoterodine Fumarate],0.994,1.01,0.961,1.01,1,0.973
CCC(=O)O[C@@H](OP(=O)(CCCCc1ccccc1)CC(=O)N1C[C@H](C2CCCCC2)C[C@H]1C(=O)[O-])C(C)C.[Na+] (some centres not stated) [Fosinopril Sodium],1.06,1.02,1.04,1.03,1.13,1.01
CCN1CCCC1CNC(=O)c1cc(S(N)(=O)=O)ccc1OC (configuration not stated) [Levosulpiride],1.02,1.03,1.05,1.01,1.06,1.01
CCNC1(C(N)=O)CCN(c2ncnc3c2nc(-c2ccccc2Cl)n3-c2ccc(Cl)cc2)CC1.[Cl-].[H+],0.991,1,1.04,0.999,1.06,1.01
CCc1ccc(OCc2ccccc2C(=O)Nc2ccc3nc(C)cc(N)c3c2)cc1.[Cl-].[H+] [JTC-801],0.751,0.718,0.8,0.713,0.744,0.778
CC(C)(C)NC[C@@H](O)COc1nsnc1N1CCOCC1.O=C(O)/C=C\C(=O)O [Timolol Maleate],1.04,1.04,1.06,1.03,1.11,1.02
N=C(N)NCCC[C@@H](NC(=O)[C@@H]1CCCN1C(=O)[C@@H]1CSSCCC(=O)N[C@@H](Cc2ccc(O)cc2)C(=O)N[C@@H](Cc2ccccc2)C(=O)N[C@@H](CCC(N)=O)C(=O)N[C@@H](CC(N)=O)C(=O)N1)C(=O)NCC(N)=O [Desmopressin],0.995,1.02,1.01,1.01,0.999,1.02
N[C@@H](Cc1ccc(O)c(O)c1)C(=O)O [L-DOPA],0.987,1.05,1.05,1.05,1.04,1.03
CC/C(=C(\c1ccccc1)c1ccc(OCCN(C)C)cc1)c1ccccc1.O=C(O)CC(O)(CC(=O)O)C(=O)O [Tamoxifen Citrate],0.851,0.952,0.982,0.958,0.896,0.938
C[C@]12CC[C@@H]3c4ccc(O)cc4CC[C@H]3[C@@H]1CCC2=O [Estrone],1.07,1,1.05,1.03,1.08,1.02
CN1CCC(c2c[nH]c3ccc(O)cc23)CC1,0.996,0.984,0.997,1,0.996,1.02
C[C@]12N[C@H](Cc3ccccc31)c1ccccc12 [MK-801 (Dizocilpine)],1.03,1.05,1.06,1.03,1.09,0.998
CCc1cc(C(C)=NOCc2ccc(C3CCCCC3)c(C(F)(F)F)c2)ccc1CN1CC(C(=O)O)C1 [BAF312 (Siponimod)],1.01,0.961,0.968,1.01,0.989,0.99
CC[C@H](c1ccc(O)cc1)[C@@H](CC)c1ccc(O)cc1 [Hexestrol],1.05,0.973,0.993,1.02,1.06,0.989
Cc1nn(-c2ccccc2)c(C)c1C=NN1CCN(Cc2ccccc2)CC1 [SANT-1],0.98,1.02,1.05,0.992,1.08,1.04
COC(c1ccccc1)(c1ccccc1)C(Oc1nc(C)cc(C)n1)C(=O)O (configuration not stated) [Ambrisentan],1.01,1.04,1.06,1.05,1.05,1.03
Nc1cc(-c2ccncc2)c[nH]c1=O [inamrinone],0.994,1.06,1.05,1.04,1.03,1.03
Oc1ccc2ccc(OCCCCN3CCN(c4cccc5sccc45)CC3)cc2n1 [Brexpiprazole],1.04,0.99,1.02,1,1.05,1.03
CCN(CC)CCOc1ccc(C(=C(Cl)c2ccccc2)c2ccccc2)cc1.O=C(O)CC(O)(CC(=O)O)C(=O)O [Clomifene citrate],0.796,0.94,0.941,0.915,0.876,0.914
